Biological target: T1, TNKS2 (Homo sapiens, UniProt Q9H2K2)
T1 construct: purchased BPS Bioscience, San Diego, USA 80572 (TNKS2 Histone Ribosylation Assay Kit)
T1 sequence (Q9H2K2 1-1166): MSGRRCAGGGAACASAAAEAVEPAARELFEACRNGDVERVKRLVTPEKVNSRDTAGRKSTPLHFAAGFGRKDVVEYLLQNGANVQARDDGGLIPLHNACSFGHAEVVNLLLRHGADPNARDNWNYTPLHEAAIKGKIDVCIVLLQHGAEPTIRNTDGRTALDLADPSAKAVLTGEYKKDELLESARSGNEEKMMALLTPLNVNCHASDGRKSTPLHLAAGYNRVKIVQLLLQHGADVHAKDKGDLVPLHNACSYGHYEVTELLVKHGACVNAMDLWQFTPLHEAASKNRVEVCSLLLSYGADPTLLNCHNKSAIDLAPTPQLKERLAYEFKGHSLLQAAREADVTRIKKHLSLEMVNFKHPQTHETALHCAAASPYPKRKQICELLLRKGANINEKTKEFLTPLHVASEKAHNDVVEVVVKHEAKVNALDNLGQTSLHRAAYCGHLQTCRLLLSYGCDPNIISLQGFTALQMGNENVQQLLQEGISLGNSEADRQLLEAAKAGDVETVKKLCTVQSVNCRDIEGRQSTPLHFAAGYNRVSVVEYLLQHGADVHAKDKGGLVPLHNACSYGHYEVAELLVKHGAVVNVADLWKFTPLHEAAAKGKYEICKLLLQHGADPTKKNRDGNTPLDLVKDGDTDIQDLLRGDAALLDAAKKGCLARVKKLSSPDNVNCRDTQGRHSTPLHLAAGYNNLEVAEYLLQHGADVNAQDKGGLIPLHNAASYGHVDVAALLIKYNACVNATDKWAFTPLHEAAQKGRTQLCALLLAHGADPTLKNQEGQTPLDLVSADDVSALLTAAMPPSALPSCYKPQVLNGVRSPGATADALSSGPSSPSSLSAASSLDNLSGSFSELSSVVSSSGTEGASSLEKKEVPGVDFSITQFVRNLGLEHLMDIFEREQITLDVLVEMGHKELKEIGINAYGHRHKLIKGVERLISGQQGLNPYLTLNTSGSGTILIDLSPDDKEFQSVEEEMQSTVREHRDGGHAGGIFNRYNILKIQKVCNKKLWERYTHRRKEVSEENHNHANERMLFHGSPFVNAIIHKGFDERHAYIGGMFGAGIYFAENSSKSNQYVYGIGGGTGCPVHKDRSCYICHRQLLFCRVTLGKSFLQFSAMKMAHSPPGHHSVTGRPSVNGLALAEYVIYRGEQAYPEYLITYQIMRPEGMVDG
Test: TNKS2 Assay B (auto-parsylation, [3H]-NAD+ SPA)
Assay type: biochemical
Conditions: 6 nM TNKS2, auto-parsylation, over night at room temperature

Row | SMILES | IC50 [nM]
1 | COCC(C)NC(=O)c1nc[nH]c1C(=O)N[C@H]1CC[C@@]2(CCN(c3ccc(F)cc3Cl)C2=O)CC1 (mixture of isomers) [Example 164, N^5-[(trans)-2-(2-chloro-4-fluorophenyl)-1-oxo-2-azaspiro[4.5]dec-8-yl]-N^4-(1-methoxypropan-2-yl)-1H-imidazole-4,5-dicarboxamide] | 28
2 | Cc1c(C(C)N(C)C)cnc2c(C(=O)N[C@H]3CC[C@H](C(=O)Nc4ccc(F)cc4Cl)CC3)cnn12 (single isomer, unassigned) [Example 56, N-{trans-4-[(2-chloro-4-fluorophenyl)carbamoyl]cyclohexyl}-6-[1-(dimethylamino)ethyl]-7-methylpyrazolo[1,5-a]pyrimidine-3-carboxamide] | 370
3 | Cc1c(C(C)N(C)C)cnc2c(C(=O)N[C@H]3CC[C@H](C(=O)Nc4ccc(F)cc4Cl)CC3)cnn12 (single isomer, unassigned) [Example 57, N-{trans-4-[(2-chloro-4-fluorophenyl)carbamoyl]cyclohexyl}-6-[1-(dimethylamino)ethyl]-7-methylpyrazolo[1,5-a]pyrimidine-3-carboxamide] | 160
4 | CNC(=O)c1nc[nH]c1C(=O)N[C@H]1CC[C@H](C(=O)Nc2cc(F)c(F)cc2Cl)CC1 [Example 3, N^5-{trans-4-[(2-chloro-4,5-difluorophenyl)carbamoyl]cyclohexyl}-N^4-methyl-1H-imidazole-4,5-dicarboxamide] | 8.1
5 | O=C(NCCN1CCCCC1)c1nc[nH]c1C(=O)N[C@H]1CC[C@H](C(=O)Nc2cc(F)c(F)cc2Cl)CC1 [Example 4, N^5-{trans-4-[(2-chloro-4,5-difluorophenyl)carbamoyl]cyclohexyl}-N^4-[2-(piperidin-1-yl)ethyl]-1H-imidazole-4,5-dicarboxamide] | 2.1
6 | CNC(=O)c1nc[nH]c1C(=O)N[C@H]1CC[C@H](C(=O)Nc2cc(OC)c(OC)cc2Cl)CC1 [Example 5, N^5-{trans-4-[(2-chloro-4,5-dimethoxyphenyl)carbamoyl]cyclohexyl}-N^4-methyl-1H-imidazole-4,5-dicarboxamide] | 110
7 | CNC(=O)c1nc[nH]c1C(=O)N[C@H]1CC[C@H](C(=O)Nc2c(F)cc(F)cc2Cl)CC1 [Example 6, N^5-{trans-4-[(2-chloro-4,6-difluorophenyl)carbamoyl]cyclohexyl}-N^4-methyl-1H-imidazole-4,5-dicarboxamide] | 60
8 | CNC(=O)c1nc[nH]c1C(=O)N[C@H]1CC[C@H](C(=O)Nc2ccc(F)cc2Br)CC1 [Example 7, N^5-{trans-4-[(2-bromo-4-fluorophenyl)carbamoyl]cyclohexyl}-N^4-methyl-1H-imidazole-4,5-dicarboxamide] | 27
9 | CNC(=O)c1nc[nH]c1C(=O)N[C@H]1CC[C@H](C(=O)Nc2ccc(F)cc2)CC1 [Example 8, N^5-{trans-4-[(4-fluorophenyl)carbamoyl]cyclohexyl}-N^4-methyl-1H-imidazole-4,5-dicarboxamide] | 2300
10 | CNC(=O)c1nc[nH]c1C(=O)N[C@H]1CC[C@H](C(=O)Nc2ccc(C)cc2Cl)CC1 [Example 9, N^5-{trans-4-[(2-chloro-4-methylphenyl)carbamoyl]cyclohexyl}-N^4-methyl-1H-imidazole-4,5-dicarboxamide] | 110
11 | CNC(=O)c1[nH]cnc1C(=O)NC1CCC(C(=O)Nc2ccc(F)cc2Cl)CC1OC (stereo not drawn) [Example 36, N^4-{(1α,2β,4β)-4-[(2-chloro-4-fluorophenyl)carbamoyl]-2-methoxycyclohexyl}-N^5-methyl-1H-imidazole-4,5-dicarboxamide] | > 10000
12 | CNC(=O)c1[nH]cnc1C(=O)NC1CCC(C(=O)Nc2ccc(F)cc2Cl)CC1OC (stereo not drawn) [Example 37, N^4-{(1α,2β,4β)-4-[(2-chloro-4-fluorophenyl)carbamoyl]-2-methoxycyclohexyl}-N^5-methyl-1H-imidazole-4,5-dicarboxamide] | > 10000
13 | O=C(NCCC1CC1)c1nc[nH]c1C(=O)N[C@H]1CC[C@H](C(=O)Nc2cc(N3CCOCC3)ccc2Cl)CC1 [Example 93, N^5-(trans-4-{[2-chloro-5-(morpholin-4-yl)phenyl]carbamoyl}cyclohexyl)-N^4-(2-cyclopropylethyl)-1H-imidazole-4,5-dicarboxamide] | 1600
14 | CC(C)(O)CNC(=O)c1nc[nH]c1C(=O)N[C@H]1CC[C@H](C(=O)Nc2cc(N3CCOCC3)ccc2Cl)CC1 [Example 94, N^5-(trans-4-{[2-chloro-5-(morpholin-4-yl)phenyl]carbamoyl}cyclohexyl)-N^4-(2-hydroxy-2-methylpropyl)-1H-imidazole-4,5-dicarboxamide] | 1600
15 | O=C(NCC(F)(F)F)c1nc[nH]c1C(=O)N[C@H]1CC[C@H](C(=O)Nc2cc(N3CCOCC3)ccc2Cl)CC1 [Example 95, N^5-(trans-4-{[2-chloro-5-(morpholin-4-yl)phenyl]carbamoyl}cyclohexyl)-N^4-(2,2,2-trifluoroethyl)-1H-imidazole-4,5-dicarboxamide] | 4300
16 | CNC(=O)c1nc[nH]c1C(=O)N[C@H]1CC[C@H](C(=O)Nc2cnccc2Cl)CC1 [Example 96, N^5-{trans-4-[(4-chloropyridin-3-yl)carbamoyl]cyclohexyl}-N^4-methyl-1H-imidazole-4,5-dicarboxamide] | 28
17 | O=C(NCC1CCCO1)c1nc[nH]c1C(=O)N[C@H]1CC[C@H](C(=O)Nc2cnccc2Cl)CC1 (stereo partly drawn) [Example 97, N^5-{trans-4-[(4-chloropyridin-3-yl)carbamoyl]cyclohexyl}-N^4-(tetrahydrofuran-2-ylmethyl)-1H-imidazole-4,5-dicarboxamide] | 39
18 | COC(C)(C)CNC(=O)c1nc[nH]c1C(=O)N[C@H]1CC[C@H](C(=O)Nc2cnccc2Cl)CC1 [Example 98, N^5-{trans-4-[(4-chloropyridin-3-yl)carbamoyl]cyclohexyl}-N^4-(2-methoxy-2-methylpropyl)-1H-imidazole-4,5-dicarboxamide] | 39
19 | COCC(C)NC(=O)c1nc[nH]c1C(=O)N[C@H]1CC[C@H](C(=O)Nc2cnccc2Cl)CC1 (stereo partly drawn) [Example 99, N^5-{trans-4-[(4-chloropyridin-3-yl)carbamoyl]cyclohexyl}-N^4-(1-methoxypropan-2-yl)-1H-imidazole-4,5-dicarboxamide] | 110
20 | Cc1cc(NC(=O)[C@H]2CC[C@H](NC(=O)c3[nH]cnc3C(=O)NCC(C)(C)O)CC2)c(Cl)cc1F [Example 100, N^5-{trans-4-[(2-chloro-4-fluoro-5-methylphenyl)carbamoyl]cyclohexyl}-N^4-(2-hydroxy-2-methylpropyl)-1H-imidazole-4,5-dicarboxamide] | 110
21 | COC(C)(C)CNC(=O)c1nc[nH]c1C(=O)N[C@H]1CC[C@H](C(=O)Nc2cc(C)c(F)cc2Cl)CC1 [Example 101, N^5-{trans-4-[(2-chloro-4-fluoro-5-methylphenyl)carbamoyl]cyclohexyl}-N^4-(2-methoxy-2-methylpropyl)-1H-imidazole-4,5-dicarboxamide] | 100
22 | Cc1cc(C)n2ncc(C(=O)N[C@H]3CC[C@H](C(=O)Nc4ccncc4Cl)CC3)c2n1 [Example 102, N-{trans-4-[(3-chloropyridin-4-yl)carbamoyl]cyclohexyl}-5,7-dimethylpyrazolo[1,5-a]pyrimidine-3-carboxamide] | 200
23 | O=C(N[C@H]1CC[C@H](C(=O)Nc2ccncc2Cl)CC1)c1cnc2cccnn12 [Example 103, N-{trans-4-[(3-chloropyridin-4-yl)carbamoyl]cyclohexyl}imidazo[1,2-b]pyridazine-3-carboxamide] | 290

— patent US20180148418A1, “AMIDO-SUBSTITUTED CYCLOHEXANE DERIVATIVES” (Bayer Pharma Aktiengesellschaft, priority 2015, published 2018)
